In ChEMBL document CHEMBL1201861, “Genomics of Drug Sensitity in Cancer screening data, Wellcome Trust Sanger Institute”:

Columns and labels:
Assay in all cases: cells
CP66-MEL = assay type: functional, cell-based, Homo sapiens; details: Homo sapiens, CP66-MEL;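 also: growth inhibition of CP66-MEL cells determined in a cell viability assay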
Description: SANGER: Inhibition of human CP66-MEL cell growth in a cell viability assay.

D283 Med = assay type: functional, cell-based, Homo sapiens; details: Homo sapiens, D283 Med
Description: SANGER: Inhibition of human D-283MED cell growth in a cell viability assay.

DSH1 = assay type: functional, cell-based, Homo sapiens; details: Homo sapiens, DSH1;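 also: growth inhibition of human DSH1 cells, measured with a cell viability readout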
Description: SANGER: Inhibition of human DSH1 cell growth in a cell viability assay.

ES3 = assay type: functional, cell-based, Homo sapiens; details: Homo sapiens, ES3;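 also: growth inhibition of ES3 cells, read out with a cell viability assay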
Description: SANGER: Inhibition of human ES3 cell growth in a cell viability assay.

ES8 = assay type: functional, cell-based, Homo sapiens; details: Homo sapiens, ES8;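 also: growth inhibition of human ES8 cells, read out with a cell viability assay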
Description: SANGER: Inhibition of human ES8 cell growth in a cell viability assay.

EW-11 = assay type: functional, cell-based, Homo sapiens; details: Homo sapiens, EW-11;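 also: growth inhibition of human EW-11 cells, measured with a cell viability assay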
Description: SANGER: Inhibition of human EW-11 cell growth in a cell viability assay.

EW-24 = assay type: functional, cell-based, Homo sapiens; details: Homo sapiens, EW-24;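 also: human EW-24 cancer cell line, growth inhibition read out via a cell viability assay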
Description: SANGER: Inhibition of human EW-24 cell growth in a cell viability assay.

EW-3 = assay type: functional, cell-based, Homo sapiens; details: Homo sapiens, EW-3;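 also: cell viability assay read-out, IC50 reflects inhibition of growth of the EW-3 cells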
Description: SANGER: Inhibition of human EW-3 cell growth in a cell viability assay.

GB-1 = assay type: functional, cell-based, Homo sapiens; details: Homo sapiens, GB-1;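 also: growth of GB-1 cells judged by a viability assay, IC50 marks the concentration inhibiting growth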
Description: SANGER: Inhibition of human GB-1 cell growth in a cell viability assay.

GR-ST = assay type: functional, cell-based, Homo sapiens; details: Homo sapiens, GR-ST
Description: SANGER: Inhibition of human GR-ST cell growth in a cell viability assay.

HCC2218 = assay type: functional, cell-based, Homo sapiens; details: Homo sapiens, HCC2218;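 also: cell viability assay read-out, with IC50 given as the concentration that inhibits growth of the cell line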
Description: SANGER: Inhibition of human HCC2218 cell growth in a cell viability assay.

HCE-T = assay type: functional, cell-based, Homo sapiens; details: Homo sapiens, HCE-T;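 also: cell viability assay read-out, reporting inhibition of HCE-T cell growth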
Description: SANGER: Inhibition of human HCE-T cell growth in a cell viability assay.

HEL = assay type: functional, cell-based, Homo sapiens; details: Homo sapiens, HEL;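 also: growth inhibition of HEL cells, read out with a cell viability assay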
Description: SANGER: Inhibition of human HEL cell growth in a cell viability assay.

IA-LM = assay type: functional, cell-based, Homo sapiens; details: Homo sapiens, IA-LM;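 also: cell viability assay measuring growth inhibition of human IA-LM cells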
Description: SANGER: Inhibition of human IA-LM cell growth in a cell viability assay.

IST-MEL1 = assay type: functional, cell-based, Homo sapiens; details: Homo sapiens, IST-MEL1;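 also: growth inhibition of the cell line, read out with a cell viability assay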
Description: SANGER: Inhibition of human IST-MEL1 cell growth in a cell viability assay.

JVM-3 = assay type: functional, cell-based, Homo sapiens; details: Homo sapiens, JVM-3;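 also: growth inhibition of human JVM-3 cells, read out with a cell viability assay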
Description: SANGER: Inhibition of human JVM-3 cell growth in a cell viability assay.

KARPAS-45 = assay type: functional, cell-based, Homo sapiens; details: Homo sapiens, KARPAS-45;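 also: inhibition of cell line growth, read out through a viability assay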
Description: SANGER: Inhibition of human KARPAS-45 cell growth in a cell viability assay.

KM12 = assay type: functional, cell-based, Homo sapiens; details: Homo sapiens, KM12;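 also: KM12 cell growth inhibition, read out with a cell viability assay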
Description: SANGER: Inhibition of human KM12 cell growth in a cell viability assay.

KNS-81-FD = assay type: functional, cell-based, Homo sapiens; details: Homo sapiens, KNS-81-FD;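 also: growth inhibition of KNS-81-FD cells, read out with a cell viability assay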
Description: SANGER: Inhibition of human KNS-81-FD cell growth in a cell viability assay.

LC-2-ad = assay type: functional, cell-based, Homo sapiens; details: Homo sapiens, LC-2-ad;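 also: growth inhibition of human LC-2-ad cells, read out with a cell viability assay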
Description: SANGER: Inhibition of human LC-2-ad cell growth in a cell viability assay.

LNCaP-Clone-FGC = assay type: functional, cell-based, Homo sapiens; details: Homo sapiens, LNCaP-Clone-FGC
Description: SANGER: Inhibition of human LNCaP-Clone-FGC cell growth in a cell viability assay.

LU-134-A = assay type: functional, cell-based, Homo sapiens; details: Homo sapiens, LU-134-A
Description: SANGER: Inhibition of human LU-134-A cell growth in a cell viability assay.

MC116 = assay type: functional, cell-based, Homo sapiens; details: Homo sapiens, MC116;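 also: growth inhibition of MC116 cells, read out with a cell viability assay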
Description: SANGER: Inhibition of human MC116 cell growth in a cell viability assay.

MEG-01 = assay type: functional, cell-based, Homo sapiens; details: Homo sapiens, MEG-01;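 also: growth inhibition of MEG-01 cells, read out by a cell viability assay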
Description: SANGER: Inhibition of human MEG-01 cell growth in a cell viability assay.

NCI-H23 = assay type: functional, cell-based, Homo sapiens; details: Homo sapiens, NCI-H23;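 also: cell viability assay measuring growth inhibition of NCI-H23 cells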
Description: SANGER: Inhibition of human NCI-H23 cell growth in a cell viability assay.

NCI-H526 = assay type: functional, cell-based, Homo sapiens; details: Homo sapiens, NCI-H526;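 also: growth inhibition of the human NCI-H526 cell line, measured by a cell viability assay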
Description: SANGER: Inhibition of human NCI-H526 cell growth in a cell viability assay.

NCI-H747 = assay type: functional, cell-based, Homo sapiens; details: Homo sapiens, NCI-H747;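 also: growth inhibition of human NCI-H747 cells, read out by a cell viability assay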
Description: SANGER: Inhibition of human NCI-H747 cell growth in a cell viability assay.

NCI-N87 = assay type: functional, cell-based, Homo sapiens; details: Homo sapiens, NCI-N87;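 also: growth inhibition of human NCI-N87 cells, read out with a cell viability assay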
Description: SANGER: Inhibition of human NCI-N87 cell growth in a cell viability assay.

NKM-1 = assay type: functional, cell-based, Homo sapiens; details: Homo sapiens, NKM-1;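 also: growth inhibition of NKM-1 cells, read out with a cell viability assay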
Description: SANGER: Inhibition of human NKM-1 cell growth in a cell viability assay.

NOMO-1 = assay type: functional, cell-based, Homo sapiens; details: Homo sapiens, NOMO-1;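 also: growth inhibition of human NOMO-1 cells measured by a cell viability assay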
Description: SANGER: Inhibition of human NOMO-1 cell growth in a cell viability assay.

RH-1 = assay type: functional, cell-based, Homo sapiens; details: Homo sapiens, RH-1;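 also: growth inhibition of human RH-1 cells, read out with a cell viability assay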
Description: SANGER: Inhibition of human RH-1 cell growth in a cell viability assay.

SH-4 = assay type: functional, cell-based, Homo sapiens; details: Homo sapiens, SH-4;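 also: growth inhibition of SH-4 cells, read out with a cell viability assay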
Description: SANGER: Inhibition of human SH-4 cell growth in a cell viability assay.

SHP77 = assay type: functional, cell-based, Homo sapiens, SHP-77; details: Homo sapiens, SHP77;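 also: growth inhibition of human SHP-77 cells measured by a cell viability assay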
Description: SANGER: Inhibition of human SHP-77 cell growth in a cell viability assay.

SK-MEL-2 = assay type: functional, cell-based, Homo sapiens; details: Homo sapiens, SK-MEL-2;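 also: growth inhibition of human SK-MEL-2 cells measured with a cell viability assay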
Description: SANGER: Inhibition of human SK-MEL-2 cell growth in a cell viability assay.

SK-N-DZ = assay type: functional, cell-based, Homo sapiens; details: Homo sapiens, SK-N-DZ;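 also: growth inhibition of the cancer cell line, read out through a viability assay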
Description: SANGER: Inhibition of human SK-N-DZ cell growth in a cell viability assay.

SK-N-FI = assay type: functional, cell-based, Homo sapiens; details: Homo sapiens, SK-N-FI;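 also: cell viability assay measuring growth inhibition of human SK-N-FI cells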
Description: SANGER: Inhibition of human SK-N-FI cell growth in a cell viability assay.

SK-UT-1 = assay type: functional, cell-based, Homo sapiens; details: Homo sapiens, SK-UT-1;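 also: growth inhibition of SK-UT-1 cells, measured by a cell viability assay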
Description: SANGER: Inhibition of human SK-UT-1 cell growth in a cell viability assay.

SW 954 = assay type: functional, cell-based, Homo sapiens; details: Homo sapiens, SW 954;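 also: growth inhibition of SW954 human cancer cells, read out as cell viability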
Description: SANGER: Inhibition of human SW954 cell growth in a cell viability assay.

TE-1 = assay type: functional, cell-based, Homo sapiens; details: Homo sapiens, TE-1
Description: SANGER: Inhibition of human TE-1 cell growth in a cell viability assay.

A388 = assay type: functional, cell-based, Homo sapiens; details: Homo sapiens, A388;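 also: growth inhibition of human A388 cells, read out with a cell viability assay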
Description: SANGER: Inhibition of human A388 cell growth in a cell viability assay.

A4-Fuk = assay type: functional, cell-based, Homo sapiens; details: Homo sapiens, A4-Fuk;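 also: growth inhibition of A4-Fuk cells, read out by a cell viability assay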
Description: SANGER: Inhibition of human A4-Fuk cell growth in a cell viability assay.

A498 = assay type: functional, cell-based, Homo sapiens; details: Homo sapiens, A498;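 also: growth inhibition of human A498 cells, read out with a cell viability assay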
Description: SANGER: Inhibition of human A498 cell growth in a cell viability assay.

ACN = assay type: functional, cell-based, Homo sapiens; details: Homo sapiens, ACN;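 also: growth inhibition of the human ACN cell line, read out via cell viability testing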
Description: SANGER: Inhibition of human ACN cell growth in a cell viability assay.

BE-13 = assay type: functional, cell-based, Homo sapiens; details: Homo sapiens, BE-13;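 also: growth inhibition of human BE-13 cells, measured with a cell viability assay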
Description: SANGER: Inhibition of human BE-13 cell growth in a cell viability assay.

TE-12 = assay type: functional, cell-based, Homo sapiens; details: Homo sapiens, TE-12;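 also: growth inhibition of TE-12 cells, read out by a cell viability assay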
Description: SANGER: Inhibition of human TE-12 cell growth in a cell viability assay.

U-266 = assay type: functional, cell-based, Homo sapiens; details: Homo sapiens, U-266
Description: SANGER: Inhibition of human U-266 cell growth in a cell viability assay.

U-87 MG = assay type: functional, cell-based, Homo sapiens, U-87MG ATCC; details: Homo sapiens, U-87 MG;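 also: growth inhibition of the cells measured with a viability assay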
Description: SANGER: Inhibition of human U-87-MG cell growth in a cell viability assay.

CCRF-CEM = assay type: functional, cell-based, Homo sapiens; details: Homo sapiens, CCRF-CEM;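 also: inhibition of CCRF-CEM cell growth, measured by a cell viability assay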
Description: SANGER: Inhibition of human CCRF-CEM cell growth in a cell viability assay.

COLO-668 = assay type: functional, cell-based, Homo sapiens; details: Homo sapiens, COLO-668
Description: SANGER: Inhibition of human COLO-668 cell growth in a cell viability assay.

`Cc1cc([N+](=O)[O-])ccc1NS(=O)(=O)c1cc(Cl)ccc1Cl` gave an IC50 (CP66-MEL) of 0.268 µM, an IC50 (D283 Med) of 3.96 µM and an IC50 (DSH1) of 0.949 µM. It also gave an IC50 (ES3) of 7.72 µM, an IC50 (ES8) of 8.95 µM and an IC50 (EW-11) greater than 32 µM. The IC50 (EW-24) was greater than 32 µM, the IC50 (EW-3) was greater than 32 µM and the IC50 (GB-1) was 2.19 µM. It also gave an IC50 (GR-ST) of 10.3 µM, an IC50 (HCC2218) of 3.44 µM and an IC50 (HCE-T) of 9.59 µM. For the same compound, the IC50 (HEL) was 6.96 µM, the IC50 (IA-LM) was 3.05 µM and the IC50 (IST-MEL1) was 11.2 µM. The IC50 (JVM-3) was greater than 32 µM, the IC50 (KARPAS-45) was 4.51 µM and the IC50 (KM12) was 5.99 µM. The IC50 (KNS-81-FD) was 21.2 µM, the IC50 (LC-2-ad) was 4.63 µM and the IC50 (LNCaP-Clone-FGC) was 21.6 µM. For the same compound, the IC50 (LU-134-A) was greater than 32 µM, the IC50 (MC116) was 3.14 µM and the IC50 (MEG-01) was greater than 32 µM. It also gave an IC50 (NCI-H23) greater than 32 µM, an IC50 (NCI-H526) of 28.2 µM and an IC50 (NCI-H747) of 7.48 µM. The IC50 (NCI-N87) was 7.25 µM, the IC50 (NKM-1) was 10.2 µM and the IC50 (NOMO-1) was 6.21 µM. It also gave an IC50 (RH-1) of 10.2 µM, an IC50 (SH-4) of 1.38 µM and an IC50 (SHP77) of 22.9 µM. The IC50 (SK-MEL-2) was 1.72 µM, the IC50 (SK-N-DZ) was greater than 32 µM and the IC50 (SK-N-FI) was 16.7 µM. The IC50 (SK-UT-1) was 1.96 µM, the IC50 (SW 954) was 7.26 µM and the IC50 (TE-1) was 7.65 µM. For the same compound, the IC50 (A388) was 4.93 µM, the IC50 (A4-Fuk) was greater than 32 µM and the IC50 (A498) was greater than 32 µM. The IC50 (ACN) was 3.71 µM, the IC50 (BE-13) was 7.53 µM and the IC50 (TE-12) was 2.94 µM. The IC50 (U-266) was 22.9 µM, the IC50 (U-87 MG) was 22.4 µM and the IC50 (CCRF-CEM) was 7.88 µM. It also gave an IC50 (COLO-668) of 4.48 µM.
`Oc1ccc2ccccc2c1SSc1c(O)ccc2ccccc12` was tested, and the IC50 (CP66-MEL) was greater than 32 µM, the IC50 (D283 Med) was greater than 32 µM and the IC50 (DSH1) was greater than 32 µM. The IC50 (ES3) was 11.4 µM, the IC50 (ES8) was greater than 32 µM and the IC50 (EW-11) was greater than 32 µM. The IC50 (EW-24) was greater than 32 µM, the IC50 (EW-3) was 29.5 µM and the IC50 (GB-1) was 2.63 µM. It also gave an IC50 (GR-ST) of 11 µM, an IC50 (HCC2218) greater than 32 µM and an IC50 (HCE-T) greater than 32 µM. For the same compound, the IC50 (HEL) was 3.73 µM, the IC50 (IA-LM) was greater than 32 µM and the IC50 (IST-MEL1) was greater than 32 µM. For the same compound, the IC50 (JVM-3) was greater than 32 µM, the IC50 (KARPAS-45) was 12.8 µM and the IC50 (KM12) was greater than 32 µM. For the same compound, the IC50 (KNS-81-FD) was greater than 32 µM, the IC50 (LC-2-ad) was 24.1 µM and the IC50 (LNCaP-Clone-FGC) was greater than 32 µM. It also gave an IC50 (LU-134-A) greater than 32 µM, an IC50 (MC116) greater than 32 µM and an IC50 (MEG-01) greater than 32 µM. For the same compound, the IC50 (NCI-H23) was greater than 32 µM, the IC50 (NCI-H526) was greater than 32 µM and the IC50 (NCI-H747) was greater than 32 µM. The IC50 (NCI-N87) was greater than 32 µM, the IC50 (NKM-1) was greater than 32 µM and the IC50 (NOMO-1) was greater than 32 µM. The IC50 (RH-1) was 27.8 µM, the IC50 (SH-4) was greater than 32 µM and the IC50 (SHP77) was greater than 32 µM. It also gave an IC50 (SK-MEL-2) greater than 32 µM, an IC50 (SK-N-DZ) of 9.2 µM and an IC50 (SK-N-FI) greater than 32 µM. For the same compound, the IC50 (SK-UT-1) was greater than 32 µM, the IC50 (SW 954) was greater than 32 µM and the IC50 (TE-1) was greater than 32 µM. For the same compound, the IC50 (A388) was greater than 32 µM, the IC50 (A4-Fuk) was 9.44 µM and the IC50 (A498) was greater than 32 µM. For the same compound, the IC50 (ACN) was greater than 32 µM, the IC50 (BE-13) was greater than 32 µM and the IC50 (TE-12) was greater than 32 µM. For the same compound, the IC50 (U-266) was greater than 32 µM, the IC50 (U-87 MG) was greater than 32 µM and the IC50 (CCRF-CEM) was 5.98 µM. The IC50 (COLO-668) was greater than 32 µM.
